Bounds are passed on as bounds.

The values below come from PMC4503722, “Novel Phenotypic Outcomes Identified for a Public Collection of Approved Drugs from a Publicly Accessible Panel of Assays” (PLoS ONE, 2015).

For one experiment, the system named is NCI-H716 cells. Put plainly: cells. It is filed as cell-based, Human. The settings on record: for hNCI-H716 GLP1 Secretion IC50/EC50: assay number 12; for IC50/EC50, hNCI-H716 GLP1 Secretion (assay number 12): concentration response.
In the next experiment the test system is STC-1 cell line. It is filed as cell-based, mouse. The settings on record: for mSTC-1 GLP1 Secretion IC50/EC50: assay number 13; for IC50/EC50, mSTC-1 GLP1 Secretion (assay number 13): concentration response.

As for `Cc1cc(N)c2cc(NC(=O)Nc3ccc4nc(C)cc(N)c4c3)ccc2n1` [NCGC00013130-04], the “hNCI-H716 GLP1 Secretion IC50/EC50” value with NCI-H716 cells is listed as 34.2472 µM. In addition, the “mSTC-1 GLP1 Secretion IC50/EC50” value in the experiment with STC-1 cell line is given as > 40 µM.

Turning to `CC(=O)OC(C)C[N+](C)(C)C.[Cl-]` (stereo not drawn) [NCGC00015045-09], the “hNCI-H716 GLP1 Secretion IC50/EC50” value in the experiment on NCI-H716 cells was > 40 µM. Besides, the “mSTC-1 GLP1 Secretion IC50/EC50” value in the experiment with STC-1 cell line is > 40 µM.

Take `CC(C)(Oc1ccc(C2CC2(Cl)Cl)cc1)C(=O)O` (stereo not drawn) [NCGC00015202-08]: in the experiment on NCI-H716 cells, the “hNCI-H716 GLP1 Secretion IC50/EC50” value is > 40 µM. Further, the “mSTC-1 GLP1 Secretion IC50/EC50” value in the experiment on STC-1 cell line is > 40 µM.

For the compound `C=Cc1c(C)c2cc3[nH]c(cc4nc(cc5nc(cc1[nH]2)C(C)=C5CCC(=O)O)C(CCC(=O)O)=C4C)c(C)c3C=C` [NCGC00015844-10], in the experiment on NCI-H716 cells, the “hNCI-H716 GLP1 Secretion IC50/EC50” value was 19.5523 µM. Also, the “mSTC-1 GLP1 Secretion IC50/EC50” value with STC-1 cell line is > 40 µM.

Consider `CN(C(=O)CN(CCO)CC(=O)N(C)C(C)(C)Cc1ccccc1)C(C)(C)Cc1ccccc1` [NCGC00016382-07], for which, in the experiment on NCI-H716 cells, the “IC50/EC50, hNCI-H716 GLP1 Secretion (assay number 12)” value (“IC50/EC50, hNCI-H716 GLP1 Secretion” for short) was 25.0515 µM. Further, the “IC50/EC50, mSTC-1 GLP1 Secretion (assay number 13)” value (“IC50/EC50, mSTC-1 GLP1 Secretion” below) in the experiment on STC-1 cell line is given as > 40 µM.

In the case of `Cc1c(NC(C)C)c(=O)n(-c2ccccc2)n1C` [NCGC00016735-06], the “hNCI-H716 GLP1 Secretion IC50/EC50” value with NCI-H716 cells is > 40 µM. In the experiment on STC-1 cell line, the “mSTC-1 GLP1 Secretion IC50/EC50” value is > 40 µM.

On to `CN[C@@H]1[C@H](O)[C@H](NC)[C@H]2O[C@@]3(O)C(=O)C[C@@H](C)O[C@H]3O[C@@H]2[C@H]1O.Cl.Cl` [NCGC00017354-07], for which the “hNCI-H716 GLP1 Secretion IC50/EC50” value in the experiment with NCI-H716 cells is > 40 µM. The “mSTC-1 GLP1 Secretion IC50/EC50” value in the experiment on STC-1 cell line was > 40 µM.

`C/C=C(/C(=C/C)c1ccc(O)cc1)c1ccc(O)cc1` [NCGC00018153-10]: the “IC50/EC50, hNCI-H716 GLP1 Secretion” value with NCI-H716 cells is on record as > 40 µM. In the experiment with STC-1 cell line, the “IC50/EC50, mSTC-1 GLP1 Secretion” value is > 40 µM.

For `CCCCCCCCN[C@@H](C)[C@H](O)c1ccc(SC(C)C)cc1` [NCGC00018301-05], the “IC50/EC50, hNCI-H716 GLP1 Secretion” value with NCI-H716 cells is recorded as 13.0298 µM. In addition, the “IC50/EC50, mSTC-1 GLP1 Secretion” value in the experiment on STC-1 cell line is given as > 40 µM.
